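How tested: cells in 96-well plates exposed to compound for 48 hours at five concentrations. The concentration for 50% growth inhibition is given as GI50. TGI: total growth inhibition.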
Tests used:
Assay in all cases: NCI-60 cell line screen, 48 h
ACHN renal = system: ACHN renal
CAKI-1 renal = system: CAKI-1 renal
HOP-92 NSCLC = system: HOP-92 NSCLC
MDA-MB-435 = system: MDA-MB-435
NCI/ADR-RES ovarian = system: NCI/ADR-RES ovarian
OVCAR-5 ovarian = system: OVCAR-5 ovarian
PC-3 prostate = system: PC-3 prostate
RXF 393 renal = system: RXF 393 renal
SF-295 CNS = system: SF-295 CNS
SK-MEL-2 melanoma = system: SK-MEL-2 melanoma

SMILES | TGI (ACHN renal) | TGI (CAKI-1 renal) | TGI (HOP-92 NSCLC) | TGI (MDA-MB-435) | TGI (NCI/ADR-RES ovarian) | TGI (OVCAR-5 ovarian) | TGI (PC-3 prostate) | TGI (RXF 393 renal) | TGI (SF-295 CNS) | TGI (SK-MEL-2 melanoma) | GI50 (ACHN renal) | GI50 (CAKI-1 renal) | GI50 (HOP-92 NSCLC) | GI50 (MDA-MB-435) | GI50 (NCI/ADR-RES ovarian) | GI50 (OVCAR-5 ovarian) | GI50 (PC-3 prostate) | GI50 (RXF 393 renal) | GI50 (SF-295 CNS) | GI50 (SK-MEL-2 melanoma)
CN(C)CCSCCO | > 100 µM | > 100 µM | > 100 µM | > 100 µM | > 100 µM | > 100 µM | > 100 µM | > 100 µM | > 100 µM | > 100 µM | – | – | – | – | – | – | – | – | – | –
CCc1ccc2nccc(NCCCN(C)C)c2c1[N+](=O)[O-] | > 100 µM | > 100 µM | > 100 µM | > 100 µM | > 100 µM | 90.8 µM | > 100 µM | > 100 µM | > 100 µM | > 100 µM | – | – | – | – | – | – | – | – | – | –
COc1cccc(N=N/C(=N\NC(=O)c2cc(Br)ccc2O)c2ccc(N(CCC#N)CCC#N)cc2OC)c1 | > 150 µg/mL | > 150 µg/mL | > 150 µg/mL | > 150 µg/mL | > 150 µg/mL | > 150 µg/mL | > 150 µg/mL | > 150 µg/mL | > 150 µg/mL | > 150 µg/mL | 56.8 µg/mL | 88.6 µg/mL | 116 µg/mL | 67.8 µg/mL | 120 µg/mL | 79.2 µg/mL | 49.5 µg/mL | 70.4 µg/mL | 52.6 µg/mL | 47.9 µg/mL
CNC1=C(C(=O)OC)SC(c2ccccc2)(c2ccccc2)SC1 | – | > 100 µM | > 100 µM | 10.9 µM | 70.2 µM | > 100 µM | > 100 µM | > 100 µM | 39.4 µM | 85.8 µM | – | 44.1 µM | 20.7 µM | 3.15 µM | 12 µM | > 100 µM | 15.3 µM | 22 µM | 6.06 µM | 7.06 µM
Cc1cc(C)c(S(=O)(=O)N(CCc2cccc(Br)c2)Cc2ccc(-c3cccc(S(C)(=O)=O)c3)cc2)c(C)c1 | > 100 µM | > 100 µM | > 100 µM | > 100 µM | > 100 µM | > 100 µM | > 100 µM | > 100 µM | > 100 µM | > 100 µM | > 100 µM | > 100 µM | > 100 µM | > 100 µM | > 100 µM | > 100 µM | > 100 µM | > 100 µM | > 100 µM | > 100 µM
CCNNC(=O)[C@@H]1[C@H](c2cc(OC)c(OC)c(OC)c2)c2cc3c(cc2[C@H](O)[C@H]1CO)OCO3 | > 100 µM | > 100 µM | > 100 µM | 0.697 µM | 17.7 µM | > 100 µM | > 100 µM | > 100 µM | > 100 µM | > 100 µM | 0.755 µM | 0.596 µM | 0.433 µM | 0.24 µM | 0.509 µM | 0.519 µM | 0.391 µM | 0.34 µM | 0.32 µM | 0.614 µM
C[C@@H](COCCC(=O)N1CCN(c2ncc(C(F)(F)F)cn2)CC1)Nc1cn[nH]c(=O)c1C(F)(F)F | > 100 µM | > 100 µM | > 65.7 µM | > 100 µM | > 100 µM | > 100 µM | > 100 µM | > 100 µM | > 100 µM | > 100 µM | 28.3 µM | 14.1 µM | 0.323 µM | > 100 µM | > 90.5 µM | > 100 µM | 45.4 µM | 32.8 µM | 19.5 µM | > 100 µM
C=C1C(=O)OC2/C=C(\CO)CC/C=C(\CO)CC(OC(=O)C(C)C)C12 (configuration not stated) | 3.54 µM | 3.31 µM | 4.13 µM | 29.5 µM | 45.3 µM | 29.8 µM | 31.1 µM | 19.3 µM | 45.5 µM | 30.8 µM | – | – | – | – | – | – | – | – | – | –
N#Cc1nc2c(S(=O)(=O)c3ccccc3)c(N)n(Cc3ccc(Cl)cc3)c2nc1C#N | 13 µM | > 50 µM | 46.2 µM | > 50 µM | 10.3 µM | > 50 µM | > 50 µM | 13.9 µM | > 50 µM | > 50 µM | 4.23 µM | 26.7 µM | 12.3 µM | 19.4 µM | 0.424 µM | 13 µM | 18.3 µM | 2.45 µM | 14.7 µM | 32.6 µM
C=C1C(OC/C=C/COC2O[C@@H]3O[C@@]4(C)CC[C@H]5[C@H](C)CC[C@@H](C2=C)[C@@]35OO4)O[C@@H]2O[C@@]3(C)CC[C@H]4[C@H](C)CC[C@@H]1[C@@]24OO3 (some centres not stated) | 17.3 µM | 21.7 µM | 36.3 µM | 21.5 µM | 18.1 µM | 18.8 µM | 32.5 µM | 5.93 µM | 2.19 µM | > 100 µM | 1.72 µM | 1.63 µM | 1.14 µM | 0.301 µM | 0.203 µM | 0.0489 µM | < 0.0141 µM | 0.166 µM | – | 16 µM
